Experimental data from US8871208B2, “11-β-hydroxysteroid dehydrogenase type 1 (11β-HSD1) inhibitors and uses thereof” (AbbVie Inc., priority 2009, dated 2014).

How the values were obtained:
Format in all cases: in vivo
plasma osteocalcin [1] = assay: Study A: prednisolone-induced osteocalcin reduction in rats; conditions: prednisolone 10 mg/kg po, 4 hour time point
Source text: Prednisolone (active GC) administration to rats induces a variety of acute physiological effects including an increase in liver tyrosine amino transferase, increase in serum free fatty acids, increase in liver glycogen levels, hyperglycemia, decrease in osteocalcin, among others. Osteocalcin is of particular interest since a decrease in this hormone leads to decreased bone formation, increasing the potential for osteoporosis. Administration of an 11β-HSD-1 inhibitor would be expected to reduce local reactivation of prednisolone from prednisone in the bone or relevant tissue, and thereby reduce loss of osteocalin levels. […] Prednisone is reactivated, however, to prednisolone in the liver, bone and other tissues where 11β-HSD-1 is expressed. By blocking this reactivation through the use of an 11β-HSD-1 inhibitor, the exposure of active glucocorticoid in bone would be minimized. […] To validate this hypothesis, effects of the 11β-HSD-1 inhibitor (compound A) on prednisolone-induced osteocalcin reduction was evaluated in rats using two separate protocols as indicated in the Table 8 below.
In Study A, rats were pre-dosed with Compound A at 30 mg/kg 1 hour prior to administration with the active glucocorticoid, prednisolone, at 10 mg/kg, po. At 2 and 4 hours after dosing prednisolone, rats were sacrificed, and blood evaluated for levels of osteocalcin.

[2] = tested on: P1NP (N-terminal propeptide of type I procollagen); assay: Mouse model of glucocorticoid-induced osteoporosis: plasma P1NP; conditions: mice, control diet
Source text: (§1) Purpose: The purpose of this experiment was to determine if inhibiting 11β-HSD-1 in mice results in protection from prednisolone-induced bone loss over a 28-day period, while maintaining the same anti-inflammatory efficacy against lipopolysaccharide(LPS)-induced TNFα.
(§2) Animals: Female Swiss Webster mice from Charles River Laboratories (CFW mice) were used in this study. Mice were 10 weeks old at the start of the study. Two identical prednisolone dose responses were run with a vehicle control (n=12), 5, 1.5, and 0.5 mg/kg dosed for 28 days (n=8 each), and 1.5 mg/kg dosed for 27 days (n=8, to determine if prednisolone needed to be on board to affect tumor necrosis factor-alpha(TNFα), procollagen type 1 N-terminal propeptide(P1NP), and Osteocalcin). […] The total number of animals used was 88.
(§3) Experimental Design: All animals were placed on the control diet (Research Diets Rodent Diet with 60 kcal % Fat: D12492i) upon arrival. […] Also on this day, animals were weighed for baselines and ear-tagged for identification. On day 1 of the study, all animals were injected intraperitoneally (i.p.) with 10 mg/kg of calcein (Sigma #C0875) in 2% sodium bicarbonate (Sigma #S6014, dissolved in deionized water). […] On day 27, 4 animals from each vehicle control group were challenged with 5 mg/kg of 11-dehydrocorticosterone (11-DHC [Steraloids #Q3690-000]) p.o., and plasma was collected 30 minutes later for corticosterone analysis by mass spec. […] Thirty minutes later, all groups were challenged with 0.1 mg/kg of LPS (Sigma #L4130) to induce TNFα. […] Right leg bones, left leg bones, and the spinal columns of all mice were collected and stored as follows:
N-terminal propeptide of type I procollagen (PINP) was measured using the Rat/Mouse PINP EIA kit from Immunodiagnostic Systems. The protocol was followed as outlined in the kit, except for that sample dilutions were made in a separate plate instead of directly in the ELISA plate. Samples were read using a Molecular Devices Spectra Max 190 plate reader and Soft Max Pro 5.2 software.

Osteocalcin = assay: Mouse model of glucocorticoid-induced osteoporosis: plasma osteocalcin; conditions: mice, control diet
Source text: as §1, §2, §3
Osteocalcin was measured using the Millipore Milliplex Mouse Osteocalcin Single-Plex Kit. The protocol was followed exactly as outlined in the kit. Samples were read on a BioRad Bio-Plex System, model # Luminex 100 and Bio-Plex Manager 4.1.1 software.

TNFα = assay: Mouse model of glucocorticoid-induced osteoporosis: LPS-induced TNFα; conditions: mice, LPS 0.1 mg/kg challenge, control diet
Source text: as §1, §2, §3
TNFα was measured using the Mouse […] Quantikine ELISA kit from R&D Systems. The protocol was followed as outlined in the kit. Samples were read using a Molecular Devices Spectra Max 250 plate reader and Soft Max Pro 4.8 software.

[3] = tested on: Trabecular bone at Femoral Metaphysis; assay: Mouse model of glucocorticoid-induced osteoporosis: femur histomorphometry; conditions: mice, control diet
Source text: as §1, §2, §3
Left leg bones were removed, cleaned, and cut identically to the right leg bones. However, left legs were separated at the knee joint by carefully teasing apart with a scalpel.
Femurs were fixed in 4% paraformaldehyde for 48 hours, and transferred to 30% sucrose for 24 hours before embedding in a CMC (carboxymethylcellulose) block. Blocks were frozen in liquid nitrogen-cooled hexanes (−60° C. or colder) for 3-5 minutes, and stored at −80° C. Femurs were then sectioned on a cryomicrotome.
Bone was measured from 8-10 fields per femur, with each field being 400×500 microns in size. All dynamic measurement calculations were made from scoring the second and third fluorochrome labels, which were administered 11 days apart. OsteoMeasure software was used to obtain all values.
Bone formation rate/bone volume (BFR/BV) refers to the volume of new bone formed per unit of time, and is measured as a percent per day. BFR is the most significant measure of bone formation.
Mineral apposition rate (MAR) refers to the distance between two fluorochrome labels divided by the number of days between label administration, and is indicative of osteoblastic activity.
Double labeled surface/bone surface (dLS/BS) refers to the percentage of trabecular bone surface which is double-labeled, and is another readout indicative of bone formation.

plasma osteocalcin [4] = assay: Study B: prednisone-induced osteocalcin reduction in rats; conditions: vehicle pre-treatment, prednisone 10 mg/kg po, 4 hours later
Source text: Prednisolone (active GC) administration to rats induces a variety of acute physiological effects including an increase in liver tyrosine amino transferase, increase in serum free fatty acids, increase in liver glycogen levels, hyperglycemia, decrease in osteocalcin, among others. Osteocalcin is of particular interest since a decrease in this hormone leads to decreased bone formation, increasing the potential for osteoporosis. Administration of an 11β-HSD-1 inhibitor would be expected to reduce local reactivation of prednisolone from prednisone in the bone or relevant tissue, and thereby reduce loss of osteocalin levels. […] Prednisone is reactivated, however, to prednisolone in the liver, bone and other tissues where 11β-HSD-1 is expressed. By blocking this reactivation through the use of an 11β-HSD-1 inhibitor, the exposure of active glucocorticoid in bone would be minimized. This example would pertain to normal older individuals as well where cortisol levels increase with age, and likely contribute to age-dependent osteoporosis. This would be an acute study design. To validate this hypothesis, effects of the 11β-HSD-1 inhibitor (compound A) on prednisolone-induced osteocalcin reduction was evaluated in rats using two separate protocols as indicated in the Table 8 below.

Row | SMILES | plasma osteocalcin after prednisolone (plasma osteocalcin [1]) | % Inhibition of P1NP, (−) Inhibitor ([2]; prednisolone 0.5 mg/kg p.o. daily 28 days) [%] | % Inhibition of P1NP, (−) Inhibitor ([2]; prednisolone 5 mg/kg p.o. daily 28 days) [%] | % Inhibition of Osteocalcin, (−) Inhibitor (Osteocalcin; prednisolone 0.5 mg/kg) [%] | % Inhibition of Osteocalcin, (−) Inhibitor (Osteocalcin; prednisolone 5 mg/kg) [%] | % Inhibition of TNFα, (−) Inhibitor (TNFα; prednisolone 0.5 mg/kg) [%] | % Inhibition of TNFα, (−) Inhibitor (TNFα; prednisolone 5 mg/kg) [%] | % Inhibition of TNFα, (−) Inhibitor (TNFα; prednisolone […]) [%] | % Increase in dLS/BS, (−) Inhibitor ([3]; prednisolone 0.5 mg/kg) | % Inhibition of BFR/BV, (−) Inhibitor ([3]; prednisolone 0.5 mg/kg) | % Inhibition of MAR, (−) Inhibitor ([3]; prednisolone 0.5 mg/kg) [%] | % Increase in dLS/BS, (−) Inhibitor ([3]; prednisolone 5 mg/kg) | % Inhibition of BFR/BV, (−) Inhibitor ([3]; prednisolone 5 mg/kg) [%] | % Inhibition of MAR, (−) Inhibitor ([3]; prednisolone 5 mg/kg) [%] | plasma osteocalcin after prednisone challenge (plasma osteocalcin [4])
1 | C[C@]12C=CC(=O)C=C1CC[C@@H]1[C@@H]2[C@@H](O)C[C@@]2(C)[C@H]1CC[C@]2(O)C(=O)CO [Prednisolone, prednisolone, reference compound] | significant reductions in plasma osteocalcin | 33 | 51 | 10 | 45 | 80 | 98 | 95 | No Increase | No Inhibition | 33 | No Increase | 27 | 52 | –
2 | C[C@]12C=CC(=O)C=C1CC[C@@H]1[C@@H]2C(=O)C[C@@]2(C)[C@H]1CC[C@]2(O)C(=O)CO [prednisone] | – | – | – | – | – | – | – | – | – | – | – | – | – | – | significant reduction in plasma osteocalcin
